The values that follow come from patent publication US5602156A, “Method for inhibiting metalloproteinase expression” (The United States of America as represented by the …, priority 1994, dated 1997).

The test system of assay [1] is MMP-2. The experiment in a line: Gelatin zymography of conditioned media from human cancer cell lines (gelatinase activity). The class given is cell-based. To be noted: for reduction of activated MMP-2: 20 μM compound 1. How it is done: (§1) Conditioned media for zymogram and Western blot analysis were produced under serum-free conditions. Cells (2 million) were plated in 25 cm^2 flasks in serum-containing medium and cultured overnight. Serum-containingmedium was removed and the cell monolayers were washed twice with DMEM/ITS (DMEM containing insulin (5 μg/mL), transferrin (5 μg/mL), and selenium (5 ng/mL)). The resultant cells were fed with 3 mL of DMEM/ITS and additives as described in the Examples for two 24 hour periods. Conditioned media samples were collected at 24 hours and cells were refed with fresh DMEM/ITS containing the described additives for an additional 24 hours. Conditioned media samples were centrifuged to remove cells and debris then frozen at -20° C. until use. Freeze and thaw cycles of the conditioned media were limited to no more than two.
Quantitation of the effect was evaluated by laser densitometry of the resultant zymograms.
Aliquots of conditioned medium (15 μL) were electrophoresed on gelatin-containing 10% PAGE gels under nonreducing but denaturing conditions. These conditions allow the different gelatin-degrading species (MMPs) to separate by size. […] Bands of clearing, seen after Coomassie blue staining correspond to areas of gelatinase activity.
OVCAR3 conditioned media samples were concentrated 10-fold prior to zymography.
Known concentrated conditioned medium from HT1080 cells was used for identification of the gelatinase species as marked in FIG. 1A: 92 kDa, gelatinase B/MMP-9; 72 kDa, gelatinase A/MMP-2 latent form; 65 kDa intermediate and 62 kDa activated forms of MMP-2. The activated form of MMP-2 results from cleavage of the amino terminal domain.
Lane 1 corresponds to cells treated only with 0.05% DMSO as a control.
Quantitation of the zymograms in FIGS. 1A-1C were carded out using laser densitometry.
The effect of structural analogs on the gelatinase activity of A2058 cells was similarly evaluated.

For assay [2], the system named is gelatinase activity of the metalloproteinases. Put plainly: Zymogram slices incubated with compound 1 or calcium chelators in the activating buffer (direct inhibition of enzyme). It is filed as biochemical, human. How it is done:
See, Felder, et al., J. Pharm. Exp. Therapeut. 257:967-971 (1991) and unpublished observations by the inventors.
Gelatin zymography was carded out using control conditioned media from A2058 cells and HT1080 cells in the absence of compound 1. Zymogram slices were incubated in low salt collagenase buffer with control (DMSO 0.1%), an inhibitory dose of compound 1 (20 μM), or the calcium chelators EGTA (10 mM) and EDTA (10 mM). […] See, Brown, et al., Cancer Res. 50:6184-6191 (1990). […] Lane 1 for each of the zymograms corresponds to A2058 while lane 2 corresponds to HT1080.

Assay [3] deals with receptor-operated and voltage-gated calcium influx. To be noted: cited from earlier work.
The subject of assay [4] is MMP-2. Put plainly: Northern blot of MMP-2 mRNA from A2058 cells. It is filed as cell-based, human. To be noted: 2 μM; for inhibition in MMP-2 transcription: corrected for loading (GAPDH). How it is done: This example illustrates the effect of compound 1 on MMP-1 and MMP-2 mRNA from A2058 cells using Northern blot analysis.
Total cytoplasmic RNA was purified from A2058 cells using cesium chloride density centrifugation. Cells were treated with DMSO vehicle (0.05 %) or compound 1 (2 μM) for 24 or 48 hr. Total RNA yields from treated and control cells (μg/10^6 cells) were similar. Aliquots (5 μg) of total RNA were denatured and separated on formaldehyde-1% agarose slab gels, passively transferred to GeneScreen, and crosslinked using ultraviolet light exposure. RNA was hybridized in buffer (50% deionized formamide, 5x SSC, 10 mM Tris HCl pH 7.5, 1x Denharts solution without albumin, 1.0% SDS, and 0.125 mg/mL salmon sperm DNA) containing 10^6 counts/mL of ^32 P- labeled probe of either MMP-2, MMP-1, or with GAPDH which was used as a measure of RNA load. Probes were labeled to high specific activity with ^32 P-dCTP using a random primer labeling protocol. The cDNA probes for the MMP-2, MMP-1, and GAPDH have been described. See, Brown, et al., Cancer Res. 50:6184-6191 (1990); Templeton, et at., Cancer Res. 50:5431-5437 (1990); and Fort, et al., Nucleic Acids Res. 13:1431-1441 (1985). Radiolabeled bands were quantitated using laser densitometric analysis of autoradiography bands. Numeric data are presented as percent inhibition of IVase or interstitial collagenase expression corrected for loading using GAPDH.

Assay [5] concerns proliferation and metastasis. To be noted: cited from earlier work.
Another assay concerns phospholipase C-γ. To be noted: cited from earlier work.
For the next assay, the system named is MMP-9. Put plainly: Gelatin zymography of HT1080 cells, compound 1 with or without TGF-β1 (densitometry), 92 kDa. It is filed as cell-based, human. To be noted: control band = 100%. How it is done: as §1
A2058 human melanoma cells, human HT1080 fibrosarcoma cells, and OVCAR3 human ovarian cancer cells were incubated with increasing concentrations of compound 1 (0.2-20 μM) or DMSO control (0.05%) and subjected to gelatin zymography. Aliquots of conditioned medium (15 μL) were electrophoresed on gelatin-containing 10% PAGE gels under nonreducing but denaturing conditions. These conditions allow the different gelatin-degrading species (MMPs) to separate by size. The enzymes renature after removal of the SDS by incubation of the gel with 2.5 % Triton X-100, and degrade the gelatin substrate present in the polyacrylamide gel upon overnight incubation in low salt collagenase buffer. Bands of clearing, seen after Coomassie blue staining correspond to areas of gelatinase activity.
A2058 and HT1080 cells were incubated with compound 1 (2 μM), with or without TGF-β1 (5 ng/mL) for 24 and 48 hours prior to harvest of conditioned media. Aliquots were subjected to gelatin zymography as described in Example 1. Known concentrated conditioned medium from HT1080 cells was used for identification of the gelatinase species (92 kDa, gelatinase B/MMP-9; 72 kDa, gelatinase A/MMP-2 latent form; 65 kDa intermediate and 62 kDa activated forms of MMP-2).
Lane 1 is the control resulting from treatment of the cells with 0.1% DMSO. Lanes 2 and 3 correspond to those cells which are treated with 2 μM compound 1 in the absence of TGF-β1 for 24 and 48 hours, respectively. Lane 4 corresponds to cells which have been treated with TGF-β1 in the absence of compound 1. Lane 5 corresponds to cells which have been treated with TGF-β1 for 48 hours with compound 1 being added to the incubation mixture for the final 24 hours. Lane 6 corresponds to cells which have been treated for 48 hours with both TGF-β1 and compound 1.
*The control band was defined as 100% gelatinase activity and the other
bands were normalized to it. Numbers reflect triplicate measurements from
each zymogram band of representative zymograms. Standard deviations, not

Each structure is given as a SMILES string. “Also recorded” adds a separate entry of the source.

Consider `NC(=O)c1nnn(Cc2cc(Cl)c(C(=O)c3ccc(Cl)cc3)c(Cl)c2)c1N` [Compound 1, 5-amino-l-(4-(4-chlorobenzoyl)-3,5-dichlorobenzyl)-1,2,3-triazole-4-carboxamide], for which the MMP-2 activity result in the assay with MMP-2 [1] (A2058, 10 μM (FIG. 1E)) is on record as “reduced MMP-2 activity”. Moreover, the “reduction of activated MMP-2” value in the assay with MMP-2 [1] (A2058) is recorded as “almost complete reduction”; with MMP-2 [1] (HT1080), 75%; with MMP-2 [1] (OVCAR3) it was “almost complete reduction”. Moreover, the “shift of MMP species” value in the assay on MMP-2 [1] (HT1080 cell line) is listed as “shift to activated species with subsequent decrease in total activity”. Also, the “reduction in activity of all MMP-2 species” value with MMP-2 [1] (all cell lines (HT1080, A2058, OVCAR3), normalized to DMSO control) is “greater than 80%”. In the assay with MMP-2 [1] (three human cancer cell lines, 0.2-20 μM), the “reduction of MMP activity” value is reported as “dose dependent reduction of MMP activity”. Besides, in the assay on MMP-2 [1] (zymograms of FIG. 1), the “inhibition of MMP-2 gelatinase activity (FIG. 1)” value is on record as “dose-dependent inhibition”. Further, the “mechanism not due to calcium chelation” value in assay [2] is on record as “not due to calcium chelation”. In addition, the “gelatinase activity of enzymes in isolation” value in assay [2] (compound 1 in zymogram incubation buffer, 20 μM, A2058 and HT1080 media) is “lack of reduction of gelatinolytic activity in conditioned medium; also recorded: does not inhibit gelatinase activity of the metalloproteinases; also recorded: did not effect its activity in isolation”. Also, in assay [3], the calcium influx inhibition entry was “inhibits receptor-operated and voltage-gated calcium influx; also recorded: inhibit receptor-stimulated and voltage-gatedcalcium entry across cell membranes”. For the same compound, in the assay with MMP-2 [4], the “expression of type IV collagenase/gelatinase A MMP-2” value was “inhibits the expression”. For the same compound, the “inhibition in MMP-2 transcription” value with MMP-2 [4] (24 hr) and with MMP-2 [4] (48 hr) was “greater than 50%” each time. In addition, the “antiproliferative and antimetastatic activities” value in assay [5] was “antiproliferative and antimetastatic activities”. Further, the “tyrosine phosphorylation with activation of phospholipase C-γ” value in the assay with phospholipase C-γ is “inhibits”. For the same compound, the “gelatinase activity, 92 kDa” value in the assay on MMP-9 (with TGF-β, 2 μM compound 1, 24 hr) stood at 78%; in the assay with MMP-9 (with TGF-β, 2 μM compound 1, 48 hr), 14%; in the assay on MMP-9 (without TGF-β, 2 μM compound 1, 24 hr) it was 73%; in the assay with MMP-9 (without TGF-β, 2 μM compound 1, 48 hr), 12%.
